Format in all cases: functional
For test [1], the system named is Hordeum vulgare subsp. vulgare. Nature of the test: Amylase induction activity in barley aleurone layer at 0.01 uM.
Test [2] relates to Hordeum vulgare subsp. vulgare. Nature of the test: Amylase induction activity in barley aleurone layer at 0.1 uM.
In test [3] the test system is Hordeum vulgare subsp. vulgare. Nature of the test: Amylase induction activity in barley aleurone layer at 1 uM.

This passage reports Activity results from ChEMBL document CHEMBL1150997, “Novel compound stimulates amylase induction in barley seeds” (Bioorg Med Chem Lett, 1994).

Regarding `CC1=C(C(=O)O)[C@H]2[C@@H](C(C)C)CC[C@]1(C)[C@H]2CO`, the Activity in test [1] is 0; in test [2] it was 1; in test [3], 4.
